Test results reported in patent EP4786486A1, “PEPTIDES FOR TREATING CARDIAC DISEASES” (Universidad Complutense De Madrid, priority 2023, dated 2025).
Where no end group is shown, it is not given here.

Legend:
[1] = system: human iPSC-derived cardiomyocytes; experiment: INa density in hiPSC-CM infected with AAV9 encoding the peptide, patch-clamp; assay type: cell-based; conditions: hiPSC-CM infected 48 hours with AAV9 encoding DECA-11; vs. Ad-td-Tomato infected cardiomyocytes; P<0.05
[2] = system: minimal promoter of the human KCNJ2 gene; experiment: Luciferase promoter assay in hEK-293 cells, KCNJ2; assay type: cell-based; conditions: hEK-293 cells co-transfected with cDNA SEQ ID NO: 5; 48 hours after transfection
Method: 48 hours after transfection, luciferase assays were performed using the LightSwitch Luciferase Assay reagent, also from Active Motif, and a Berthold luminometer. All assays were performed in triplicate and each point represents the mean of each technical triplicate.

[3] = system: dissociated cardiomyocytes from Sham and TAC mice; experiment: IK1 density in dissociated cardiomyocytes, murine TAC model of HFrEF; assay type: in vivo; conditions: for IK1: administration of DECA-11 (AAV9)
Text: A murine model of CI with reduced ejection fraction (HFrEF) was used to analyse the effect of SEQ ID NO: 3 on the decrease in INa and IK1 caused by electrical remodelling associated with Cl. The mice are subjected to transverse aortic constriction (TAC) with ligation, and pressure overload leads to the occurrence of cardiac hypertrophy and Cl. The mice were produced at the Medical Research Centre of the University of Navarra (CIMA), under the direction of Dr Aránzazu González Miqueo.
Eight-week-old mice were administered 3.5×10^10 particles of adeno-associated virus type 9 that encoded either the fluorescent reporter td-Tomato (Aav-dt-T) alone, or the reporter and the peptide DECA-11. At 12 weeks of age, an echocardiographic check-up (baseline) was performed and at week 13 they underwent surgery in which the aorta was ligated (TAC animals) or not (Sham animals).
That same week they were sent to the UCM animal facility. Next, the mice were heparinised and anaesthetised and then sacrificed by cervical dislocation, at a rate of one per day, and a thoracotomy was performed to remove the heart which was mounted through the aorta into a cannula connected to a Langendorff apparatus for enzymatic dissociation of the cardiac myocytes. After removal of the heart, said heart was cannulated through the aorta and placed in a Langendorff apparatus. First, the hearts were perfused with modified Tyrode's solution (composition in mM: 136 NaCI, 4 KCI, 2 MgCl2, 1.8 CaCl2, 10 HEPES, 10 glucose, 3 pyruvic acid and 0.1 thiamine, pH=7.4 with NaOH) bubbled with oxygen and at 37°C for 3-5 minutes. Subsequently, they were perfused for another 8 minutes with the same solution without CaCl2. After 1-2 minutes, the heart stops beating. Next, they were perfused with Tyrode's solution without CaCl2 supplemented with 120 u/ml collagenase type II from Worthington and 0.5 u/ml protease XIV from Sigma. […]
As indicated above, IK1 was also recorded in mouse cardiomyocytes from all four groups. […] In fact, the density of IK1 in TAC animals pretreated with DECA-11 is not different from that recorded in Sham animals.

human Kir2.1 channels = experiment: Density of IKir2.1 by whole-cell patch-clamp in CHO cells co-transfected with the cDNA encoding the peptide; assay type: cell-based; conditions: CHO cells expressing Kir2.1 plus cDNA of the peptide (SEQ ID NO: 5), vs cells transfected only with Kir2.1 channels
Method: To do this, CHO cells were transfected with the cDNA that encodes the human cardiac channels (Kir2.1) that generate IK1 (Origene, USA) (SEQ ID NO: 22), co-transfecting cells, or not, with the cDNA described in SEQ ID NO: 5. […] The sampling frequency was 4 kHz and the data, filtered at a frequency of 2 kHz, were stored on hard disks for further analysis using the CLAMPFIT application of the pCLAMP software. The current (IKir2.1) was recorded by applying 250 ms pulses from -120 to +20 mV from a holding potential of -60 mV. The density of the same was obtained by normalising the amplitude of IKir2.1 at the end of the pulse by the capacitance of each cell (pA/pF). […] Like in example 2.1, each point represents the mean±SEM of "n" experiments obtained from at least 3 different CHO cell plates. One-way ANOVA followed by the Tukey test. * P<0.05 vs. cells transfected only with Kir2.1 channels.

| Sequence | density of INa [1] | effect on the minimal promoter of the human KCNJ2 gene (luciferase) [2] | IK1 ([3]; Sham animals) | density of IK1 compared with that recorded in Sham animals ([3]; TAC animals pretreated with DECA-11 vs. Sham animals) | IK1 ([3]; TAC animals) | density of IKir2.1 (human Kir2.1 channels) |
| --- | --- | --- | --- | --- | --- | --- |
| RFTRESLAAIE (listed as Homo sapiens) [SEQ ID NO: 3, 11-amino acid peptide, amino acids 15-25 of human Nav1.5] | significantly increase | protranscriptional effect | significantly increases | not different | significantly increases |  |
| RFTRESLAAIE [DECA-11, RFTRESLAAIE] |  |  |  |  |  | significantly increase the density of IKir2.1 |
